Data taken from patent US8664251B1, “Ryanodine receptor inhibitors for treatment of T-cell mediated disorders” (The Regents of the University of California, priority 2009, dated 2014).

How the values were obtained:
activated human T cells = experiment: Fura-2 calcium imaging in activated human T cells; assay type: cell-based; details: for [Ca^2+]i elevation evoked by readdition of extracellular Ca^2+ ([Ca^2+]SOCE): activated T cells preincubated 30 min with 500 μM Ry or 30 μM Da, p<0.01, n=7
Procedure: (§1) All studies involving human subjects were performed after approval by UC Davis Institutional Review Board and after all subjects gave written informed consent. Resting CD3^+ human lymphocytes were isolated from the peripheral blood of healthy consented adults using RosetteSep™ human lymphocyte enrichment kit (Stem Cell Tech.) following the manufacturer's instructions. Resting T cells were resuspended at 0.5−1×10^6 cells/ml in […] medium supplemented with 10 mM HEPES, 10% fetal bovine serum, 2% L-glutamine, 2% vitamins solution, 1% RPMI amino acids solution, and 0.01% β-mercaptoethanol and maintained in suspension in 5% CO2 at 37° C. Resting T cells were activated on the day of isolation by incubation with either PHA ([…]) or anti-CD3 antibody coated onto the tissue culture plates and soluble anti-CD28 antibody (5 m/ml; BD Biosciences). Resting T cells were taken for analysis on the day of isolation, whereas activated T cells were tested 4-5 days after activation.
Cell cultures and chemicals were as described in the Example 1. Before experiment, cells were plated on poly-l-lysine-coated glass-bottom clambers and then loaded with 1 μM fura-2/AM and pluronic F-127 for 5 min in modified Tyrode solution containing (in mM): 130 NaCl, 5.6 KCl, 1 MgCl2, 2 CaCl2, 10 HEPES, 10 D-glucose; pH 7.3. After washing, cells were incubated for additional 30 min at 37° C. […] In nominally Ca^2+-free solution, Ca^2+ was omitted.
Fluorescence images were acquired from adherent cells using a SenSys CCD camera (Roper Scientific, Tucson, Ariz.) and a 40× oil immersion Zeiss objective on a Zeiss Axiovert 200 inverted microscope (Thornwood, N.Y.). Lambda DG-4 filter changer (Sutter Instrument, Novato, Calif.) was used for switching between 340 and 380 nm excitation wavelengths. All experiments were performed at room temperature. Solution exchange was performed via a gravity-driven perfusion system. Solution exchange in the recording chamber was completed within 5 s. […] Unless otherwise indicated, in each experiment changes in [Ca^2+]i were recorded from 15-20 cells and then averaged.

resting human T cells = experiment: Fura-2 calcium imaging in resting human T cells; assay type: cell-based; details: resting T cells preincubated 30 min with 30 μM Da or 500 μM Ry; CPA then Ca^2+ readdition
Procedure: as §1
Cell cultures and chemicals were as described in the Example 1. […]
Fluorescence images were acquired from adherent cells using a SenSys CCD camera (Roper Scientific, Tucson, Ariz.) and a 40× oil immersion Zeiss objective on a Zeiss Axiovert 200 inverted microscope (Thornwood, N.Y.). […] Unless otherwise indicated, in each experiment changes in [Ca^2+]i were recorded from 15-20 cells and then averaged.

Jurkat T cells [1] = experiment: CFSE proliferation assay, Jurkat T cells; assay type: cell-based, human; details: 400 μM Ry or 30 μM Da, 72 hours
Procedure: (§2) Cell cultures and chemicals were as described in the Example 1. Proliferation assay—Cell division track assay was conducted using carboxyfluorescein succinimidyl ester (CFSE) proliferation kit (Molecular probes). Stock solution of CFSE (4 mM) was prepared in DMSO. Cells were washed, resuspended in PBS containing 4 μM CFSE at density 1×10^6 cells/ml, and incubated at 37° C. for 10 min. Labeling was quenched by adding 5× volume of RPMI 1640 culture media containing 10% FBS. After washing 3 times with RPMI 1640+10% FBS, cells were placed into FBS-free cell culture media to abolish cell division and kept overnight in 5% CO2 at 37° C. After overnight incubation, the CFSE-labeled cells were pellet down and fraction of them (˜50000) were fixed with 1% paraformaldehyde in PBS and analyzed by flow cytometry to establish the CFSE fluorescence profile of undivided cells. […] Fluorescence intensity was measured at 488 nm using FACScan flow cytometer and CellQuest software (Becton Dickinson Bioscience, Mountain View, Calif.). The number of cell divisions was calculated using FlowJo software (Tree Star Inc, Ashland, Oreg.). […]
(§3) Freshly isolated CD3^+ resting human T cells or Jurkat T cells were loaded with CFSE and fraction of them was fixed with 1% paraformaldehyde in PBS and analyzed by flow cytometry to establish the CFSE fluorescence profile of undivided cells (time 0). […]

human T cells = experiment: CFSE proliferation assay, human T cells activated with anti-CD3/CD28 Ab; assay type: cell-based; details: 400 μM Ry or 30 μM Da; anti-CD3/CD28 Ab activation
Procedure: as §2, §3

Jurkat T cells [2] = experiment: IL-2 production assay (ELISA), PHA-stimulated Jurkat T cells; assay type: cell-based, human; details: Ry 400 μM or Da 30 μM applied 30 min prior to PHA, 24 hours, p<0.01, n=6
Procedure: Jurkat T cells were washed 3 timed with PBS and resuspended in FBS-free cell culture media at density 0.8×10^6 cells/ml and seeded into 96 well tissue culture plate (0.4 ml per well) and then stimulated with […] mitogenic lectin phytohaemagglutinin P (PHA). Some cells were pre-incubated for 30 min at 37° C. with, Ry (400 μM), or dantrolene (30 μM) prior to stimulation with PHA. After 24 hours of incubation, cells culture supernatants were collected and contents of IL-2 was determined by ELISA using Quantikine kits (R&D systems, Minneapolis, Minn.) according to manufacturer instructions.

murine T cell [3] = details: cited from earlier work
murine T cell [4] = details: murine T cells; cited from earlier work
Jurkat T cells [5] = experiment: Fura-2 calcium imaging in Jurkat T cells; assay type: cell-based, human
Procedure: Cell cultures and chemicals were as described in the Example 1. Before experiment, cells were plated on poly-l-lysine-coated glass-bottom clambers and then loaded with 1 μM fura-2/AM and pluronic F-127 for 5 min in modified Tyrode solution containing (in mM): 130 NaCl, 5.6 KCl, 1 MgCl2, 2 CaCl2, 10 HEPES, 10 D-glucose; pH 7.3. After washing, cells were incubated for additional 30 min at 37° C. Some cells were incubated in Modified Tyrode solution containing 400 μM Ry, 30 μM dantrolene, or vehicles (methanol or, ethanol, or DMSO) alone for 30 min at 37° C. In nominally Ca^2+-free solution, Ca^2+ was omitted.
Fluorescence images were acquired from adherent cells using a SenSys CCD camera (Roper Scientific, Tucson, Ariz.) and a 40× oil immersion Zeiss objective on a Zeiss Axiovert 200 inverted microscope (Thornwood, N.Y.). Lambda DG-4 filter changer (Sutter Instrument, Novato, Calif.) was used for switching between 340 and 380 nm excitation wavelengths. All experiments were performed at room temperature. Solution exchange was performed via a gravity-driven perfusion system. Solution exchange in the recording chamber was completed within 5 s. The vehicles-containing solutions (methanol or DMSO) were applied in place of the drugs in all control experiments. Data acquisition was performed using MetaFluor v7.0 software (Universal Imaging, Downingtown, Pa.). [Ca^2+]i values were estimated from fura-2 calibration as described previously (Grynkiewicz, G., Poenie, M., and Tsien, R. Y. (1985) J Biol Chem 260(6), 3440-3450). Kd was taken as 248 nM (Fanger, C. M., Neben, A. L., and Cahalan, M. D. (2000) J Immunol 164(3), 1153-1160). Unless otherwise indicated, in each experiment changes in [Ca^2+]i were recorded from 15-20 cells and then averaged.

Jurkat T cells [6] = experiment: Manganese quench of fura-2 fluorescence (divalent cation influx via SOC channels); assay type: cell-based, human; details: Jurkat T cells preincubated 30 min with 400 μM Ry; with or without 30 μM CPA; n=5
Description: Because Mn^2+ readily passes through SOC channels (Missiaen, L., Declerck, I., Droogmans, G., Plessers, L., De Smedt, H., Raeymaekers, L., and Casteels, R. (1990) J Physiol 427, 171-186) and is unlikely to be transported from the cytosol (Chiesi, M., and Inesi, G. (1980) Biochemistry 19(13), 2912-2918; Chiesi, M., and Inesi, G. (1981) Arch Biochem Biophys 208(2), 586-592), the rate of fura-2 quenching in the presence of Mn^2+ was used as a measure of divalent cation influx into the bulk cytoplasm in intact cells. The extracellular solution used in all Mn^2+ quench experiments contained (in mM): 130 NaCl, 5.6 KCl, 1 MgCl2, 0.3 CaCl2, 0.5 MnCl2, 10 HEPES, 10 D-glucose; pH 7.3. Changes in Ca^2+-independent fluorescence due to Mn^2+ quench were determined using method described by Zhou & Neher (Zhou, Z., and Neher, E. (1993) J Physiol 469, 245-273). Briefly, background corrected fura-2 fluorescence excited at 340 nm (F340) was plotted against background corrected fura-2 fluorescence excited at 380 nm (F380) during the initial 10 seconds following application of 30 μM cyclopiazonic acid (CPA). The slope of the F340 versus F380 relationship equals the ‘isocoefficient’ α. The fluorescence value, Fi, which is unaffected by changes in [Ca^2+]i, was determined as: […]. […]

Row | Compound | Ca^2+ liberation from the ryanodine-sensitive store (activated human T cells; caffeine 20 mM, activated human T cells, normal Tyrode solution) | time courses of changes in [Ca^2+]i (resting human T cells) | [Ca^2+]i elevation evoked by readdition of extracellular Ca^2+ ([Ca^2+]SOCE) (activated human T cells) | Jurkat T cell proliferation (CFSE fluorescence profile) (Jurkat T cells [1]) | normal human activated T cell proliferation (CFSE fluorescence profile) (human T cells) | PHA-induced IL-2 production (Jurkat T cells [2]) | murine T cell proliferation following TCR stimulation (murine T cell [3]) | IL-2 production following TCR stimulation (murine T cell [4]) | PHA-induced [Ca^2+]i transients in the absence of extracellular Ca^2+ (Jurkat T cells [5]; Jurkat T cells preincubated with 400 μM Ry) | CPA-induced [Ca^2+]i transients following PHA in the absence of extracellular Ca^2+ (Jurkat T cells [5]; Jurkat T cells preincubated with 400 μM Ry, 30 μM CPA) | reduction of maximal amplitudes of [Ca^2+]i transients during Ca^2+ readdition following TCR stimulation (Jurkat T cells [5]; Jurkat T cells preincubated with 400 μM Ry, PHA then 0.5 mM Ca^2+ readdition) | [Ca^2+]i transients evoked by Ca^2+ readdition ([Ca^2+]SOCE) (Jurkat T cells [5]; Jurkat T cells preincubated with Ry, 2 mM Ca^2+ readdition after CPA, p<0.01, n=6) | store refilling (CPA2/CPA1 ratio) (Jurkat T cells [5]; Jurkat T cells preincubated with Ry, p<0.01, n=6) | Ca^2+ release on extracellular (acute) application (Jurkat T cells [5]; Ry 400 applied in nominally Ca^2+-free extracellular solution, Jurkat T cells, n=5) | divalent cation influx (Mn^2+ quench of fura-2 fluorescence) (Jurkat T cells [6])
1 | Cn1c(=O)c2c(ncn2C)n(C)c1=O [caffeine] | produced Ca^2+ liberation | – | – | – | – | – | – | – | – | – | – | – | – | – | –
2 | O=C1CN(N=Cc2ccc(-c3ccc([N+](=O)[O-])cc3)o2)C(=O)N1 [dantrolene, 1-[[[5-(4-nitrophenyl)-2-furanyl]methylene]amino]-2,4-imidaz olidinedione] | – | did not affect | reduced | inhibit | inhibit | significantly inhibited | inhibit | inhibit | – | – | – | – | – | – | –
3 | N.N.N.N.N.N.N.N.N.N.N.N.N.N.[Cl-].[Cl-].[Cl-].[Cl-].[Cl-].[Cl-].[O-2].[O-2].[Ru+3].[Ru+3].[Ru+4] [ruthenium red] | – | – | – | – | – | – | inhibit | inhibit | – | – | – | – | – | – | –
4 | ryanodine | – | did not affect | reduced | inhibit | inhibit | significantly inhibited | – | – | did not significantly affect | did not significantly affect | 42% | significantly downregulated | facilitated store refilling | does not induce Ca^2+ release | does not induce Ca^2+ release (FIG. 2 D) or affect divalent ction influx
